In patent US9181307B2, “Influenza A 2009 pandemic H1N1 polypeptide fragments comprising endonuclease activity and their use” (priority 2010, dated 2015):

System: Influenza A 2009 pandemic H1N1 PA subunit polypeptide fragment or variant thereof
Assay: Inhibition of endonucleolytic activity of PA subunit polypeptide fragment
Format: biochemical, Influenza A 2009 pandemic H1N1 virus

Row | Compound | ability to modulate, i.e. to inhibit, the endonucleolytic activity
1 | O=C(O[C@@H]1Cc2c(O)cc(O)cc2O[C@@H]1c1cc(O)c(O)c(O)c1)c1cc(O)c(O)c(O)c1 [EGCG, [(2R,3R)-5,7-dihydroxy-2-(3,4,5-trihydroxyphenyl)chroman-3-yl]3,4,5-trihydroxybenzoate] | inhibit
2 | O=C(O)/C(O)=C/C(=O)C1(Cc2ccc(Cl)cc2)CCN(CC2CCCCC2)CC1 [EMBL-R05-2, 4-[4-[(4-chlorophenyl)methyl]-1-(cyclohexylmethyl)-4-piperidinyl]-2-hydroxy-4-oxo-2-butenoic acid] | inhibit
3 | O=C(O)/C(O)=C/C(=O)C1(Cc2ccc(Cl)cc2)CCCN(Cc2ccccc2)C1 (stereo not drawn) [EMBL-R05-3, 4-[3-[(4-chlorophenyl)methyl]-1-(phenylmethyl)-3-piperidinyl]-2-hydroxy-4-oxo-2-butenoic acid] | inhibit
